Broadly, the IC50 is the concentration that inhibits the measured activity by half.

Among the data in patent US10544143B2, “4-azaindole compounds” (BRISTOL-MYERS SQUIBB COMPANY, priority 2017, dated 2020) are IC50 values, retold here.

For one experiment, the target named is human TLR7 (Homo sapiens (Human), UniProt Q9NYK1). The experiment is described as follows: TLR7 inhibition reporter assay (HEK-Blue SEAP). Format: cell-based. To be noted: HEK-Blue cells overexpressing human TLR7, SEAP reporter, gardiquimod 7.5 μM. A general note: In a reporter assay the amount or activity of a reporter protein is the signal.
The next experiment deals with human TLR8 (Homo sapiens (Human), UniProt Q9NR97). The experiment is described as follows: TLR8 inhibition reporter assay (HEK-Blue SEAP).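 Further: SEAP driven by IFN-β minimal promoter carrying NF-κB and AP-1 sites, compounds dosed 0.05 nM to 50 µM for 22 h, inhibition scaled between agonist-plus-DMSO and reference-inhibitor wells.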 The settings on record: read-out: TLR8 IC50; HEK-Blue cells overexpressing human TLR8, SEAP reporter, R848 15.9 μM.
The target in another experiment is human TLR9 (Homo sapiens (Human), UniProt Q9NR96). The experiment is described as follows: TLR9 inhibition reporter assay (HEK-Blue SEAP).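 Further: SEAP driven by an IFN-β minimal promoter with NF-κB and AP-1 sites, read after 22 h, compounds dosed 0.05 nM–50 µM, inhibition scaled between agonist plus DMSO and reference-inhibitor wells.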 The settings on record: read-out: TLR9 IC50; HEK-Blue cells overexpressing human TLR9, SEAP reporter, ODN2006 5 nM.
Sequence of human TLR9 (Q9NR96 26-1032): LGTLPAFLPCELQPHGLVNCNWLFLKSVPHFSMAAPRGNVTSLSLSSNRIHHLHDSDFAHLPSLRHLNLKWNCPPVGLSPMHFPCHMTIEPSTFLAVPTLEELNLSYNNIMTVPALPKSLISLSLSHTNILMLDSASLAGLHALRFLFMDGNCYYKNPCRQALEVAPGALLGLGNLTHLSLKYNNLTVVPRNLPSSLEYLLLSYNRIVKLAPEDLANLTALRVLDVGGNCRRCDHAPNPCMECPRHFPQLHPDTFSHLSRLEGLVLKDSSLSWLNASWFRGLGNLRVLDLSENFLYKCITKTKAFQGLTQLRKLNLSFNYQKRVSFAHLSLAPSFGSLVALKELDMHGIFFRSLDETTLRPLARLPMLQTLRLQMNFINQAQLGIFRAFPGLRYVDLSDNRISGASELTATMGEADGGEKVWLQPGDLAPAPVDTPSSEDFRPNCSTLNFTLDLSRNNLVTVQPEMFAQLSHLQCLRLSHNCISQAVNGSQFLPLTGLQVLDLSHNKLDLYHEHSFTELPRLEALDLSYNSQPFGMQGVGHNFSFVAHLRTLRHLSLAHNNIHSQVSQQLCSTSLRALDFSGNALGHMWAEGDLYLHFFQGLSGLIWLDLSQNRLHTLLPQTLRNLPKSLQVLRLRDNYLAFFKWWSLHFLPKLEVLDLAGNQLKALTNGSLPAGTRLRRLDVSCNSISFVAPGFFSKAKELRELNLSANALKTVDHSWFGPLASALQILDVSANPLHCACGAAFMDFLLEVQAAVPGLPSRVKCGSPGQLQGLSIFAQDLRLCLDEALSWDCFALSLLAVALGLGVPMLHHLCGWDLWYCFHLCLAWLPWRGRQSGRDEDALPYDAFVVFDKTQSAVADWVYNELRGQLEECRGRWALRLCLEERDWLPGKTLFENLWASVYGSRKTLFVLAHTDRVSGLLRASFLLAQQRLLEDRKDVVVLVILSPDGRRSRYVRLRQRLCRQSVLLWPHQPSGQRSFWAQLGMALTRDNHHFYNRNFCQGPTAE

Sequence of human TLR8 (Q9NR97 27-1041): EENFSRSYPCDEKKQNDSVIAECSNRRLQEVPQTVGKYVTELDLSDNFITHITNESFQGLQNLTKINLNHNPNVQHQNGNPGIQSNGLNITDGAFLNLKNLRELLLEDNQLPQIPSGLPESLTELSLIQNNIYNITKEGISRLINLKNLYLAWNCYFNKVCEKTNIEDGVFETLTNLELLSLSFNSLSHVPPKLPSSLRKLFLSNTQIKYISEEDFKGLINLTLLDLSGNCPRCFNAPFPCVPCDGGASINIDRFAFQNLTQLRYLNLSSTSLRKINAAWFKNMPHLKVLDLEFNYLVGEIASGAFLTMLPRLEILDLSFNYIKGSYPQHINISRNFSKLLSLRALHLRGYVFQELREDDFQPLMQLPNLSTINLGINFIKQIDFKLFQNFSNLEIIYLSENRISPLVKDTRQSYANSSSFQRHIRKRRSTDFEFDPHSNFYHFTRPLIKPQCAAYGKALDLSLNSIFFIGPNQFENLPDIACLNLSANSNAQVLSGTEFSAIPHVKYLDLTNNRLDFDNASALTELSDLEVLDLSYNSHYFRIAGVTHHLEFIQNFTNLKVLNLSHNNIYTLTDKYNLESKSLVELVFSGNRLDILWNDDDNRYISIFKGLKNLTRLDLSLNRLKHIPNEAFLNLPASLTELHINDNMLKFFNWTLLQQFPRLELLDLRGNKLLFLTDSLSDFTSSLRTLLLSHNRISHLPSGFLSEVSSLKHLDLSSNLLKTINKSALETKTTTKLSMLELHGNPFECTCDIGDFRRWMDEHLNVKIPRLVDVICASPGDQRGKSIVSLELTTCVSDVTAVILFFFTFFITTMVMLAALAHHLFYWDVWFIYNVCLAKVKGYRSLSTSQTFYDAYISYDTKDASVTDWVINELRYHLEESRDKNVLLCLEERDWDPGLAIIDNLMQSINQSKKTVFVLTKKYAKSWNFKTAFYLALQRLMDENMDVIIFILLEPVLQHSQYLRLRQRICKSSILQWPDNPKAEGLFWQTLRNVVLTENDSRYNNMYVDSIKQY
Sequence of human TLR7 (Q9NYK1 27-1049): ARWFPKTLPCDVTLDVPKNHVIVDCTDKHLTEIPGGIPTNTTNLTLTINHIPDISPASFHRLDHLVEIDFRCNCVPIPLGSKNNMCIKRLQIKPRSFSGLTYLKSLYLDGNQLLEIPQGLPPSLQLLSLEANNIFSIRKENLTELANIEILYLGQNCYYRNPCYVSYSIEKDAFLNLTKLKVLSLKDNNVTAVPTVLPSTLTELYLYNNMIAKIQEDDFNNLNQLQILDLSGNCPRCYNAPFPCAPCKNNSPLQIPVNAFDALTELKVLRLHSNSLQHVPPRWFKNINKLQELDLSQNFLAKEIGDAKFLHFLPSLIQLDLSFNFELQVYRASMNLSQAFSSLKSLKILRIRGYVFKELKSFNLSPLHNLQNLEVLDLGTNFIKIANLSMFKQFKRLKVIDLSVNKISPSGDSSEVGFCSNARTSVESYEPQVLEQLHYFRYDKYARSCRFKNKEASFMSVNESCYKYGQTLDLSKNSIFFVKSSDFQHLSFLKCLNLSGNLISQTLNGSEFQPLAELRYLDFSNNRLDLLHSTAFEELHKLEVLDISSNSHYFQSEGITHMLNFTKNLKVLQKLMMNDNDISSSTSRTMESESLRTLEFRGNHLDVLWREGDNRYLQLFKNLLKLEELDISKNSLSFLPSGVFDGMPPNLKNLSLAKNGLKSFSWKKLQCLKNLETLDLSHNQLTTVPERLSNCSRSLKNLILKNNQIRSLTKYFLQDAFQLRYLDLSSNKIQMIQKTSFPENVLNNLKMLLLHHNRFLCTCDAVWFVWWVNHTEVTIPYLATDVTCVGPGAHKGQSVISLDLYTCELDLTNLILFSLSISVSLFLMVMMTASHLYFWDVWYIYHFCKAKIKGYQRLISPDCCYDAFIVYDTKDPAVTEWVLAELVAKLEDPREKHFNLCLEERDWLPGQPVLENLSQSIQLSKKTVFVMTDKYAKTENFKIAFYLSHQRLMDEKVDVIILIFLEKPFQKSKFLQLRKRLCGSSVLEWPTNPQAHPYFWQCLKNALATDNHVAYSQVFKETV
Experimental for human TLR8: HEK-Blue™-cells (Invivogen) overexpressing human TLR7, TLR8 or TLR9 receptors were used for screening inhibitors of these receptors using an inducible SEAP (secreted embryonic alkaline phosphatase) reporter gene under the control of the IFN-β minimal promoter fused to five NF-κB and AP-1-binding sites. Briefly, cells are seeded into Greiner 384 well plates (15000 cells per well for TLR7, 20,000 for TLR8 and 25,000 for TLR9) and then treated with test compounds in DMSO to yield a final dose response concentration range of 0.05 nM-50 μM. After a 30 minute compound pre-treatment at room temperature, the cells are then stimulated with a TLR7 ligand (gardiquimod at a final concentration of 7.5 μM), TLR8 ligand (R848 at a final concentration of 15.9 μM) or TLR9 ligand (ODN2006 at a final concentration of 5 nM) to activate NF-κB and AP-1 which induce the production of SEAP. After a 22 hour incubation at 37° C., 5% CO2, SEAP levels are determined with the addition of HEK-Blue™ Detection reagent (Invivogen), a cell culture medium that allows for detection of SEAP, according to manufacturer's specifications.

On to `Cc1c(-c2[nH]c3ccc(C4CCC(NC5(CO)COC5)CC4)nc3c2C(C)C)cn2ncnc2c1C` (stereo not drawn) [Example 483], for which the IC50 at human TLR7 amounted to 0.94 nM; at human TLR8 it was 1.2 nM; at human TLR9, 5130 nM.

Regarding `Cc1c(-c2[nH]c3ccc(C4CCC(NC5(CO)COC5)CC4)nc3c2C(C)C)cn2ncnc2c1C` (stereo not drawn) [Example 484], the 50% inhibitory concentration (IC50) was found to be 6.1 nM at human TLR7, 11 nM at human TLR8 and 7070 nM on human TLR9.

As to `Cc1c(-c2[nH]c3ccc(C4CCC(NCC(=O)NC(C)(C)C)CC4)nc3c2C(C)C)cn2ncnc2c1C` (stereo not drawn) [Example 485], the results for the IC50 at human TLR7, at human TLR8 and on human TLR9 were 1.1 nM, 2.2 nM and 2520 nM, respectively.

`CNC(=O)C(C)(C)NC1CCC(c2ccc3[nH]c(-c4cn5ncnc5c(C)c4C)c(C(C)C)c3n2)CC1` (stereo not drawn) [Example 487]: the half-inhibitory concentration (IC50) on human TLR7 was 0.75 nM; on human TLR8, 0.49 nM; on human TLR9, 2290 nM.

Regarding `COCCN(C)C(=O)CNC1CCC(c2ccc3[nH]c(-c4cn5ncnc5c(C)c4C)c(C(C)C)c3n2)CC1` (stereo not drawn) [Example 488], the figures for the IC50 at human TLR7, at human TLR8 and at human TLR9 were 11 nM, 8.4 nM and 5360 nM, respectively.

Regarding `Cc1c(-c2[nH]c3ccc(C4CCC(NCC(=O)NC(C)(C)C)CC4)nc3c2C(C)C)cn2ncnc2c1C` (stereo not drawn) [Example 489], the figures for the IC50 at human TLR7, at human TLR8 and at human TLR9 were 20 nM, 20 nM and 6670 nM, respectively.

As for `Cc1c(-c2[nH]c3ccc(C4CCC5(CC4)CNC5)nc3c2C(C)C)cn2ncnc2c1C` [Example 491, 6-(3-isopropyl-5-(2-azaspiro[3.5]nonan-7-yl)-1H-pyrrolo[3,2-b]pyridin-2-yl)-7,8-dimethyl-[1,2,4]triazolo[1,5-a]pyridine], the half-inhibitory concentration (IC50) on human TLR7 was found to be 0.89 nM; at human TLR8, 8 nM; at human TLR9 it was 677 nM.

In the case of `Cc1c(-c2[nH]c3ccc(C4CCC5(CC4)CN(C(C)C)C5)nc3c2C(C)C)cn2ncnc2c1C` [Example 493], the half-maximal inhibitory concentration (IC50) against human TLR7 is 1760 nM; on human TLR8, 3790 nM; on human TLR9, more than 50000 nM.

Regarding `Cc1c(-c2[nH]c3ccc(C4CCC(NC5(C(=O)N(C)C)CCCC5)CC4)nc3c2C(C)C)cn2ncnc2c1C` (stereo not drawn) [Example 494], the IC50 is 5.2 nM at human TLR7, 2.8 nM at human TLR8 and 14100 nM on human TLR9.

For the compound `Cc1c(-c2[nH]c3ccc(C4CCC(NC(C)(C)C(=O)N(C)C)CC4)nc3c2C(C)C)cn2ncnc2c1C` (stereo not drawn) [Example 495], the IC50 on human TLR7 came to 3.3 nM; on human TLR8 it was 1.3 nM; on human TLR9 it was 3600 nM.

Take `Cc1c(-c2[nH]c3ccc(C4CCC(NC(C)(C)C(=O)N5CCOCC5)CC4)nc3c2C(C)C)cn2ncnc2c1C` (stereo not drawn) [Example 496]: the results for the 50% inhibitory concentration (IC50) at human TLR7, on human TLR8 and at human TLR9 were 7.5 nM, 2.1 nM and 2620 nM, respectively.

In the case of `COCCN(C1CCC(c2ccc3[nH]c(-c4cn5ncnc5c(C)c4C)c(C(C)C)c3n2)CC1)C1(CO)COC1` (stereo not drawn) [Example 499], the IC50 was 607 nM on human TLR7, 833 nM on human TLR8 and more than 50000 nM on human TLR9.

With `COCCN(C1CCC(c2ccc3[nH]c(-c4cn5ncnc5c(C)c4C)c(C(C)C)c3n2)CC1)C1(CO)COC1` (stereo not drawn) [Example 500], the IC50 against human TLR7 is 19 nM; on human TLR8, 39 nM; at human TLR9, more than 50000 nM.

With `Cc1c(-c2[nH]c3ccc(C4CCC(N(C)CC(N)=O)CC4)nc3c2C(C)C)cn2ncnc2c1C` (stereo not drawn) [Example 501], the IC50 came to 6.3 nM against human TLR7, 16 nM on human TLR8 and 9550 nM on human TLR9.

In the case of `Cc1cc2[nH]c(-c3cn4ncnc4c(C)c3C)c(C(C)C)c2nc1C1CCC(NC2COC2)CC1` (stereo not drawn) [Example 502], the IC50 against human TLR7 came out at 0.79 nM; at human TLR8, 5.1 nM; at human TLR9, 2900 nM.

Regarding `Cc1cc2[nH]c(-c3cn4ncnc4c(C)c3C)c(C(C)C)c2nc1C1CCC(NC2COC2)CC1` (stereo not drawn) [Example 503], the IC50 against human TLR7 came to 1.4 nM; on human TLR8, 9.2 nM; at human TLR9, 2500 nM.

Regarding `Cc1c(-c2[nH]c3cc(F)c(C4CCC(NC5CCOCC5)CC4)nc3c2C(C)C)cn2ncnc2c1C` (stereo not drawn) [Example 504], the figures for the IC50 on human TLR7, at human TLR8 and at human TLR9 were 0.55 nM, 0.64 nM and 3740 nM, respectively.

For `Cc1c(-c2[nH]c3cc(F)c(C4CCC(NC5CCOCC5)CC4)nc3c2C(C)C)cn2ncnc2c1C` (stereo not drawn) [Example 505], the IC50 was 3.5 nM against human TLR7, 4.9 nM on human TLR8 and 7600 nM at human TLR9.

With `Cc1c(-c2[nH]c3cc(F)c(C4CCC(N)CC4)nc3c2C(C)C)cn2ncnc2c1C` (stereo not drawn) [Example 506], the figures for the 50% inhibitory concentration (IC50) on human TLR7, on human TLR8 and on human TLR9 were 0.41 nM, 0.42 nM and 3180 nM, respectively.

For the compound `Cc1c(-c2[nH]c3cc(F)c(C4CCC(N)CC4)nc3c2C(C)C)cn2ncnc2c1C` (stereo not drawn) [Example 507], the concentration for half-maximal inhibition (IC50) against human TLR7 worked out at 1.1 nM; at human TLR8, 2.4 nM; on human TLR9, 8490 nM.

Regarding `CCN(CC(=O)N(C)C)C1CCC(c2nc3c(C(C)C)c(-c4cn5ncnc5c(C)c4C)[nH]c3cc2F)CC1` (stereo not drawn) [Example 508], the results for the IC50 on human TLR7, on human TLR8 and on human TLR9 were 1.1 nM, 3.3 nM and 6850 nM, respectively.

Regarding `CCN(CC(=O)N(C)C)C1CCC(c2nc3c(C(C)C)c(-c4cn5ncnc5c(C)c4C)[nH]c3cc2F)CC1` (stereo not drawn) [Example 509], the IC50 at human TLR7 worked out at 17 nM; on human TLR8 it was 30 nM; at human TLR9, 9100 nM.

Turning to `CCN(CCS(C)(=O)=O)C1CCC(c2nc3c(C(C)C)c(-c4cn5ncnc5c(C)c4C)[nH]c3cc2F)CC1` (stereo not drawn) [Example 510], the IC50 on human TLR7 is 5.9 nM; on human TLR8 it was 28 nM; on human TLR9 it was more than 50000 nM.

As for `CCN(CCS(C)(=O)=O)C1CCC(c2nc3c(C(C)C)c(-c4cn5ncnc5c(C)c4C)[nH]c3cc2F)CC1` (stereo not drawn) [Example 511], the half-maximal inhibitory concentration (IC50) was 5.8 nM at human TLR7, 4.8 nM at human TLR8 and more than 50000 nM at human TLR9.

In the case of `Cc1cc(-c2[nH]c3ccc(C4CCNCC4)nc3c2C(C)C)cc(C)n1` [Example 512], the IC50 at human TLR7 turned out to be 1.1 nM; on human TLR8, 5.6 nM; on human TLR9, 304 nM.

With `CC(C)c1c(-c2ccc(=O)n(C)c2)[nH]c2ccc(C3CCNCC3)nc12` [Example 513], the results for the half-maximal inhibitory concentration (IC50) at human TLR7, on human TLR8 and at human TLR9 were 319 nM, 307 nM and 545 nM, respectively.

Regarding `Cc1cc(-c2[nH]c3ccc(C4CCNCC4)nc3c2C(C)C)nn(C)c1=O` [Example 514], the IC50 at human TLR7 turned out to be 38 nM; on human TLR8 it was 44 nM; at human TLR9, 7110 nM.

As to `Cc1cc(-c2[nH]c3ccc(C4CCNCC4)nc3c2C(C)C)cn(C)c1=O` [Example 515], the 50% inhibitory concentration (IC50) was 7.9 nM at human TLR7, 21 nM on human TLR8 and 223 nM at human TLR9.

For the compound `Cc1cc(-c2[nH]c3ccc(C4CCNCC4)nc3c2C(C)C)cn2ncnc12` [Example 516], the IC50 turned out to be 0.22 nM on human TLR7, 1.9 nM on human TLR8 and 155 nM on human TLR9.

Regarding `Cc1cc(-c2[nH]c3ccc(C4CCNCC4)nc3c2C(C)C)cn2nnnc12` [Example 517], the half-maximal inhibitory concentration (IC50) against human TLR7 came out at 1.1 nM; on human TLR8, 6 nM; at human TLR9, 150 nM.

As for `Cc1cc(-c2[nH]c3ccc(C4CCNCC4)nc3c2C(C)C)cn2cnnc12` [Example 518], the IC50 against human TLR7 is 1.6 nM; at human TLR8 it was 32 nM; at human TLR9, 721 nM.
